Here are results for ten compounds from PubChem BioAssay (NCI).

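Tested at 5 concentrations; 48 h exposure; 96-well plates; endpoints linearly interpolated, else capped at highest concentration. The concentration for 50% growth inhibition is given as GI50. TGI is the concentration that stops growth completely.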

Test systems include A498 renal; CCRF-CEM leukemia; HCC-2998 colon; LOX IMVI melanoma; MALME-3M melanoma; NCI-H226 lung; NCI-H23 lung; NCI-H460 lung; SF-268 CNS; SF-539 CNS.
What all share (experiment): NCI-60 cell line screen, 48 h

`CN(C)c1ccc(N=Nc2c([O-])ccc3ccccc23)cc1.[C-]#[O+].[C-]#[O+].[Ir]`: the GI50 with A498 renal was over 100 µM; in the test with CCRF-CEM leukemia, 8.08 µM; in the test on HCC-2998 colon, 38.5 µM; in the test with LOX IMVI melanoma it was 18.6 µM; in the test with MALME-3M melanoma it was 15.7 µM; with NCI-H226 lung it was over 53.9 µM. For the same compound, the GI50 is 19.4 µM with NCI-H23 lung, over 100 µM in the test on NCI-H460 lung, 26.9 µM in the test with SF-268 CNS and 16.3 µM in the test on SF-539 CNS. The TGI in the test with A498 renal was over 100 µM; in the test on CCRF-CEM leukemia, 39.9 µM; with HCC-2998 colon, over 79.9 µM; with LOX IMVI melanoma, 40.5 µM; in the test with MALME-3M melanoma it was 33.4 µM; in the test on NCI-H226 lung, over 100 µM. Further, the TGI in the test with NCI-H23 lung is 54.9 µM; with NCI-H460 lung, over 100 µM; with SF-268 CNS it was 76.6 µM; with SF-539 CNS, 25.6 µM.

Turning to `COC(=O)C(=O)C(C(=O)C=C(C)C)C(=O)C(=O)Nc1cccc(C(C)=O)c1` (stereo not given), the TGI in the test with A498 renal, in the test with CCRF-CEM leukemia, in the test with HCC-2998 colon, in the test with LOX IMVI melanoma, in the test on MALME-3M melanoma and in the test on NCI-H226 lung was over 100 µM throughout. Also, the TGI with NCI-H23 lung, with NCI-H460 lung, with SF-268 CNS and with SF-539 CNS was over 100 µM each time.

Turning to `CCO[C@@H]1C2C=CC(C2)[C@H]1[N+](=O)[O-]` (stereo not given in full), the TGI in the test with A498 renal, in the test with CCRF-CEM leukemia, in the test with HCC-2998 colon, with LOX IMVI melanoma, with MALME-3M melanoma and in the test with NCI-H226 lung was over 100 µM each time. The TGI with NCI-H23 lung, in the test on NCI-H460 lung, with SF-268 CNS and in the test with SF-539 CNS was over 100 µM each time.

With `CC1=CC(=O)C(C(C)=Nc2ccccc2Cl)C(=O)O1` (stereo not given), the GI50 with A498 renal, in the test on CCRF-CEM leukemia, in the test on HCC-2998 colon, in the test with LOX IMVI melanoma, in the test on MALME-3M melanoma and with NCI-H226 lung was over 100 µM throughout. In addition, the GI50 in the test with NCI-H23 lung, in the test with NCI-H460 lung, with SF-268 CNS and in the test on SF-539 CNS was over 100 µM throughout. The TGI in the test with A498 renal, in the test on CCRF-CEM leukemia, with HCC-2998 colon, with LOX IMVI melanoma, in the test with MALME-3M melanoma and in the test with NCI-H226 lung was over 100 µM throughout. Also, the TGI in the test on NCI-H23 lung, with NCI-H460 lung, with SF-268 CNS and with SF-539 CNS was over 100 µM each time.

`COc1cc(/C=C(/c2ccccc2)[N+](=O)[O-])c(OC)c2c1OCO2`: the GI50 with A498 renal is 1.54 µM; with CCRF-CEM leukemia it was 0.522 µM; in the test on HCC-2998 colon, 1.97 µM; in the test on LOX IMVI melanoma, 1.14 µM; in the test with MALME-3M melanoma, 1.53 µM; with NCI-H226 lung, 1.79 µM. The GI50 is 1.73 µM in the test with NCI-H23 lung, 1.87 µM in the test on NCI-H460 lung, 1.84 µM in the test with SF-268 CNS and 1.7 µM in the test on SF-539 CNS. In addition, the TGI was 3 µM in the test with A498 renal; over 100 µM in the test on CCRF-CEM leukemia; 3.44 µM in the test with HCC-2998 colon; 2.44 µM in the test on LOX IMVI melanoma; 3.21 µM in the test on MALME-3M melanoma; 3.46 µM in the test with NCI-H226 lung. For the same compound, the TGI is 3.41 µM in the test on NCI-H23 lung, 3.58 µM in the test on NCI-H460 lung, 3.92 µM in the test with SF-268 CNS and 3.09 µM in the test on SF-539 CNS.

With `CCSc1nc(COC(=O)NC)c(COC(=O)NC)n1C`, the TGI is over 82 µM in the test on A498 renal; over 100 µM in the test with CCRF-CEM leukemia; over 100 µM in the test on HCC-2998 colon; over 100 µM with LOX IMVI melanoma; over 100 µM in the test on MALME-3M melanoma; over 100 µM in the test with NCI-H226 lung. In addition, the TGI in the test on NCI-H23 lung, with NCI-H460 lung, with SF-268 CNS and in the test on SF-539 CNS was over 100 µM throughout.

Take `O=C(O)CCC1CCc2cccc3occ1c23` (stereo not given): the TGI with A498 renal, in the test with CCRF-CEM leukemia, in the test with HCC-2998 colon, in the test with LOX IMVI melanoma, in the test on MALME-3M melanoma and in the test with NCI-H226 lung was over 100 µM each time. Besides, the TGI in the test with NCI-H23 lung, in the test with NCI-H460 lung, with SF-268 CNS and in the test on SF-539 CNS was over 100 µM each time.

Regarding `CC(=O)Oc1ccccc1C(=O)C1c2cccc(O)c2C(=O)c2c(O)cccc21`, the TGI in the test on A498 renal was found to be 7.1 µM; in the test on CCRF-CEM leukemia, 2.77 µM; with HCC-2998 colon, 6.5 µM; in the test with LOX IMVI melanoma it was 4.19 µM; in the test with MALME-3M melanoma, 4.01 µM; in the test with NCI-H226 lung it was 3.7 µM. Besides, the TGI in the test on NCI-H23 lung was found to be 4.33 µM; with NCI-H460 lung, 2.1 µM; with SF-268 CNS it was 5.54 µM; in the test on SF-539 CNS, 1.94 µM.

Regarding `O=C(Nc1ccc2c(c1)oc(=O)c1ccccc12)C(Cl)Cl`, the TGI with A498 renal, with CCRF-CEM leukemia, in the test on HCC-2998 colon, in the test with LOX IMVI melanoma, with MALME-3M melanoma and with NCI-H226 lung was over 100 µM each time. Moreover, the TGI with NCI-H23 lung is over 100 µM; with NCI-H460 lung it was 92.5 µM; with SF-268 CNS it was over 100 µM; with SF-539 CNS, over 100 µM.

In the case of `COc1ccc2c(c1)nc(N)c1c3cccnc3cn21`, the GI50 in the test with A498 renal was 0.0339 µM; in the test on CCRF-CEM leukemia it was 0.039 µM; in the test with HCC-2998 colon it was 0.103 µM; in the test on LOX IMVI melanoma, 0.0713 µM; with MALME-3M melanoma, 0.153 µM; in the test with NCI-H226 lung, 0.737 µM. Besides, the GI50 in the test with NCI-H23 lung is 0.345 µM; in the test with NCI-H460 lung, 0.0923 µM; in the test with SF-268 CNS it was 0.0917 µM; in the test on SF-539 CNS it was 0.0432 µM. Also, the TGI with A498 renal was 3.04 µM; in the test with CCRF-CEM leukemia, over 100 µM; with HCC-2998 colon, 17.5 µM; in the test on LOX IMVI melanoma, 18.7 µM; in the test on MALME-3M melanoma it was 25.7 µM; in the test with NCI-H226 lung it was 27 µM. Besides, the TGI in the test on NCI-H23 lung stood at 50 µM; in the test with NCI-H460 lung, 1.77 µM; with SF-268 CNS, 76.9 µM; in the test on SF-539 CNS, 1.09 µM.
